Assay results: publication PMC10053710, “Influence of Lipidation Pattern of the KR12 Fragment of Peptide LL-37 on Its Antibacterial and Hemolytic Activities” (International Journal of Molecular Sciences, 2023)
≈ marks a conversion by molar mass, not a printed value. Where a SMILES comes first, the peptide text is derived from it. The star is where a group is joined. Octanoyl = CCCCCCCC(=O)*

Experiments:
[1] = system: Enterococcus faecium ATCC 700221; type: cell-based; conditions: ATCC 700221, 18 h
Protocol: (§1) Tests of the antibacterial activity were carried out as we just described. Briefly, for assays, the following strains of ESKAPE bacteria were chosen: Acinetobacter baumannii ATCC BAA-1605, Enterococcus faecium ATCC 700221, Klebsiella aerogenes ATCC 13048 (formerly Enterobacter aerogenes), Klebsiella pneumoniae ATCC 700603, and Pseudomonas aeruginosa ATCC 9027. Moreover, the reference strains of Staphylococcus aureus were used: S. aureus ATCC 25923, S. aureus ATCC 6538, S. aureus ATCC 33591 (MRSA), S. aureus ATCC 9144, and S. aureus ATCC 12598. Before experiments, all the strains were stored at −80 °C in Roti®-Store cryo vials (Carl Roth GmbH, Karlsruhe, Germany). To evaluate the activity of the compounds, bacteria were transferred into fresh Mueller–Hinton medium (Becton Dickinson, Warszawa, Poland) and incubated for 24 h at 37 °C. In the next step, bacterial inoculums were seeded on Mueller–Hinton agar plates (BioMaxima SA, Lublin, Poland) and incubated again for 24 h. The MIC values were determined using the broth microdilution method according to the Clinical and Laboratory Standards Institute Protocol. The initial inoculums of bacteria (0.5 × 10^5 colony forming units (CFU)/mL) prepared in Mueller–Hinton broth were exposed to the ranging concentrations of peptides (1–512 µg/mL). The experiments were conducted on 96-well microtiter plates, with a final volume of 100 µL. The inoculum densities were checked spectrophotometrically (Multiskan™ GO Microplate Spectrophotometer, Thermo Scientific, Waltham, MA, USA) at 600 nm. The results were read after incubation for 18 h at 37 °C. The MIC values were the lowest concentration at which a visible growth of microorganisms was inhibited. All experiments were conducted in triplicate. Moreover, positive (growth) and negative (sterility) controls were included.

[2] = system: Klebsiella aerogenes ATCC 13048; type: cell-based; conditions: ATCC 13048, 18 h
Protocol: as §1

[3] = system: Pseudomonas aeruginosa ATCC 9027; type: cell-based; conditions: ATCC 9027, 18 h
Protocol: as §1

[4] = system: Klebsiella pneumoniae ATCC 700603; type: cell-based; conditions: ATCC 700603, 18 h
Protocol: as §1

[5] = system: S. aureus ATCC 33591 (MRSA); type: cell-based, Staphylococcus aureus; conditions: ATCC 33591, 18 h
Protocol: as §1

S. aureus ATCC 12598 = type: cell-based, Staphylococcus aureus; conditions: ATCC 12598, 18 h
Protocol: as §1

S. aureus ATCC 25923 = type: cell-based, Staphylococcus aureus; conditions: ATCC 25923, 18 h
Protocol: as §1

S. aureus ATCC 6538 = type: cell-based, Staphylococcus aureus; conditions: ATCC 6538, 18 h
Protocol: as §1

S. aureus ATCC 9144 = type: cell-based, Staphylococcus aureus; conditions: ATCC 9144, 18 h
Protocol: as §1

[6] = system: human red blood cells (hRBCs); assay: Hemolysis assay; conditions: 4% (v/v) erythrocytes in PBS, peptides 1–512 µg/mL, 1 h at 37 °C, hemoglobin at 540 nm, 100% = 1% Triton-X 100; ≥ means less than 5% hemolysis up to 512 µg/mL
[7] = 18 h

SMILES	MIC E. faecium [1] [µg/mL]	MIC K. aerogenes [2] [µg/mL]	MIC P. aeruginosa [3] [µg/mL]	MIC K. pneumoniae [4] [µg/mL]	MIC S. aureus 33591 [5] [µg/mL]	MIC S. aureus 12598 (S. aureus ATCC 12598) [µg/mL]	MIC S. aureus 25923 (S. aureus ATCC 25923) [µg/mL]	MIC S. aureus 6538 (S. aureus ATCC 6538) [µg/mL]	MIC S. aureus 9144 (S. aureus ATCC 9144) [µg/mL]	MHC5 (minimum hemolytic concentration causing 5% hemolysis of hRBCs) [6] [µg/mL]	MIC A. baumannii [7] [µg/mL]
CCCCCCCC(=O)N[C@@H](CCCCN)C(=O)N[C@@H](CCCNC(=N)N)C(=O)N[C@H](C(=O)N[C@H](C(=O)N[C@@H](CCC(N)=O)C(=O)N[C@@H](CCCNC(=N)N)C(=O)N[C@H](C(=O)N[C@@H](CCCCN)C(=O)N[C@@H](CC(=O)O)C(=O)N[C@@H](Cc1ccccc1)C(=O)N[C@@H](CC(C)C)C(=O)N[C@@H](CCCNC(=N)N)C(N)=O)[C@@H](C)CC)C(C)C)[C@@H](C)CC [II, C8^α-KR12-NH2] (Octanoyl-KRIVQRIKDFLR-NH2)	4 (≈ 2.36 µM)	4 (≈ 2.36 µM)	16 (≈ 9.43 µM)	8 (≈ 4.71 µM)	4 (≈ 2.36 µM)	4 (≈ 2.36 µM)	4 (≈ 2.36 µM)	2 (≈ 1.18 µM)	4 (≈ 2.36 µM)	64	8 (≈ 4.71 µM)
CCCCCCCC(=O)N[C@@H](CCCCN)C(=O)N[C@@H](CCCCN)C(=O)N[C@@H](CCCNC(=N)N)C(=O)N[C@H](C(=O)N[C@H](C(=O)N[C@@H](CCC(N)=O)C(=O)N[C@@H](CCCNC(=N)N)C(=O)N[C@H](C(=O)N[C@@H](CCCCN)C(=O)N[C@@H](CC(=O)O)C(=O)N[C@@H](Cc1ccccc1)C(=O)N[C@@H](CC(C)C)C(=O)N[C@@H](CCCNC(=N)N)C(N)=O)[C@@H](C)CC)C(C)C)[C@@H](C)CC [IV, C8^α-Lys-KR12-NH2] (Octanoyl-KKRIVQRIKDFLR-NH2)	4 (≈ 2.19 µM)	32 (≈ 17.5 µM)	32 (≈ 17.5 µM)	16 (≈ 8.77 µM)	64 (≈ 35.1 µM)	32 (≈ 17.5 µM)	128 (≈ 70.1 µM)	8 (≈ 4.38 µM)	16 (≈ 8.77 µM)	256	8 (≈ 4.38 µM)
CCCCCCCC(=O)NCCCC[C@H](N)C(=O)N[C@@H](CCCCN)C(=O)N[C@@H](CCCNC(=N)N)C(=O)N[C@H](C(=O)N[C@H](C(=O)N[C@@H](CCC(N)=O)C(=O)N[C@@H](CCCNC(=N)N)C(=O)N[C@H](C(=O)N[C@@H](CCCCN)C(=O)N[C@@H](CC(=O)O)C(=O)N[C@@H](Cc1ccccc1)C(=O)N[C@@H](CC(C)C)C(=O)N[C@@H](CCCNC(=N)N)C(N)=O)[C@@H](C)CC)C(C)C)[C@@H](C)CC [V, C8^ε-Lys-KR12-NH2] (H-K(Octanoyl)KRIVQRIKDFLR-NH2)	4 (≈ 2.19 µM)	64 (≈ 35.1 µM)	16 (≈ 8.77 µM)	16 (≈ 8.77 µM)	64 (≈ 35.1 µM)	32 (≈ 17.5 µM)	64 (≈ 35.1 µM)	8 (≈ 4.38 µM)	32 (≈ 17.5 µM)	256	32 (≈ 17.5 µM)
CCCCCCCC(=O)NCCCC[C@H](NC(=O)[C@@H](NC(=O)[C@H](CCCNC(=N)N)NC(=O)[C@H](CCC(N)=O)NC(=O)[C@@H](NC(=O)[C@@H](NC(=O)[C@H](CCCNC(=N)N)NC(=O)[C@@H](N)CCCCN)[C@@H](C)CC)C(C)C)[C@@H](C)CC)C(=O)N[C@@H](CC(=O)O)C(=O)N[C@@H](Cc1ccccc1)C(=O)N[C@@H](CC(C)C)C(=O)N[C@@H](CCCNC(=N)N)C(N)=O [VIII, [Lys^ε(C8)]^8KR12-NH2] (H-KRIVQRIK(Octanoyl)DFLR-NH2)	8 (≈ 4.71 µM)	32 (≈ 18.9 µM)	64 (≈ 37.7 µM)	32 (≈ 18.9 µM)	32 (≈ 18.9 µM)	32 (≈ 18.9 µM)	32 (≈ 18.9 µM)	4 (≈ 2.36 µM)	16 (≈ 9.43 µM)	64	8 (≈ 4.71 µM)
